Laboratory results reported in ChEMBL document CHEMBL1201862, “PubChem BioAssay data set” (2004).
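Five compound concentrations were applied to cells in 96-well plates for 48 hours; endpoints were derived by simple linear interpolation of the resulting dose-response curve. GI50: concentration for 50% inhibition of growth.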 Calls of active or inactive are those of the source. Cut-off read from the data, not from the text of the source: active = GI50 up to about 1.1 µM and inactive = higher.

Assays:
Test in all cases: NCI tumour cell line growth inhibition, 48 h
CCRF-CEM = test system: CCRF-CEM
M19-MEL = test system: M19-MEL
SN12C = test system: SN12C
HOP-62 = test system: HOP-62
KM-20L2 = test system: KM-20L2
DLD-1 = test system: DLD-1
EKVX = test system: EKVX
RXF 393 = test system: RXF 393
SK-MEL-28 = test system: SK-MEL-28
OVCAR-8 = test system: OVCAR-8
SK-MEL-5 = test system: SK-MEL-5
OVCAR-3 = test system: OVCAR-3
786-0 = test system: 786-0
SNB-78 = test system: SNB-78
SNB-19 = test system: SNB-19
M14 = test system: M14
OVCAR-4 = test system: OVCAR-4
HL-60 = test system: HL-60
HT-29 = test system: HT-29
NCI-H460 = test system: NCI-H460
DMS-273 = test system: DMS-273
LXFL 529 = test system: LXFL 529
MOLT-4 = test system: MOLT-4
ACHN = test system: ACHN
SK-OV-3 = test system: SK-OV-3
SF-295 = test system: SF-295
SF-268 = test system: SF-268
UACC-257 = test system: UACC-257
DMS-114 = test system: DMS-114
UACC-62 = test system: UACC-62
HCT-116 = test system: HCT-116
SR = test system: SR
K562 = test system: K562
LOX IMVI = test system: LOX IMVI
SF-539 = test system: SF-539
HCC 2998 = test system: HCC 2998
NCI-H226 = test system: NCI-H226
UO-31 = test system: UO-31
SW-620 = test system: SW-620
COLO 205 = test system: COLO 205
TK-10 = test system: TK-10
A549 = test system: A549
U-251 = test system: U-251
OVCAR-5 = test system: OVCAR-5
IGROV-1 = test system: IGROV-1
NCI-H23 = test system: NCI-H23
RPMI-8226 = test system: RPMI-8226
KM12 = test system: KM12
SNB-75 = test system: SNB-75
HCT-15 = test system: HCT-15
Malme-3M = test system: Malme-3M
NCI-H522 = test system: NCI-H522
CAKI-1 = test system: CAKI-1
NCI/ADR-RES = test system: NCI/ADR-RES
MDA-MB-435 = test system: MDA-MB-435
BT-549 = test system: BT-549
HOP-92 = test system: HOP-92
PC-3 = test system: PC-3
DU-145 = test system: DU-145
MCF7 = test system: MCF7
MDA-N = test system: MDA-N
Hs-578T = test system: Hs-578T
T47D = test system: T47D
SK-MEL-2 = test system: SK-MEL-2
MDA-MB-231 = test system: MDA-MB-231
A498 = test system: A498

## COC(=O)CCCN(C)c1nc(N)n[nH]1
CCRF-CEM
  GI50: > 100 µM (inactive)
M19-MEL
  GI50: > 100 µM (inactive)
SN12C
  GI50: > 100 µM (inactive)
HOP-62
  GI50: > 100 µM (inactive)
KM-20L2
  GI50: > 100 µM (inactive)
DLD-1
  GI50: > 100 µM (inactive)
EKVX
  GI50: > 100 µM (inactive)
RXF 393
  GI50: > 100 µM (inactive)
SK-MEL-28
  GI50: > 100 µM (inactive)
OVCAR-8
  GI50: > 100 µM (inactive)
SK-MEL-5
  GI50: > 100 µM (inactive)
OVCAR-3
  GI50: > 100 µM (inactive)
786-0
  GI50: > 100 µM (inactive)
SNB-78
  GI50: > 100 µM (inactive)
SNB-19
  GI50: > 100 µM (inactive)
M14
  GI50: > 100 µM (inactive)
OVCAR-4
  GI50: > 100 µM (inactive)
HL-60
  GI50: > 100 µM (inactive)
HT-29
  GI50: > 100 µM (inactive)
NCI-H460
  GI50: > 100 µM (inactive)
DMS-273
  GI50: > 100 µM (inactive)
LXFL 529
  GI50: > 100 µM (inactive)
MOLT-4
  GI50: > 100 µM (inactive)
ACHN
  GI50: > 100 µM (inactive)
SK-OV-3
  GI50: > 100 µM (inactive)
SF-295
  GI50: > 100 µM (inactive)
SF-268
  GI50: > 100 µM (inactive)
UACC-257
  GI50: > 100 µM (inactive)
DMS-114
  GI50: > 100 µM (inactive)
UACC-62
  GI50: > 100 µM (inactive)
HCT-116
  GI50: > 100 µM (inactive)
SR
  GI50: > 100 µM (inactive)
K562
  GI50: > 100 µM (inactive)
LOX IMVI
  GI50: > 100 µM (inactive)
SF-539
  GI50: > 100 µM (inactive)
HCC 2998
  GI50: > 100 µM (inactive)
NCI-H226
  GI50: > 100 µM (inactive)
UO-31
  GI50: > 100 µM (inactive)
SW-620
  GI50: > 100 µM (inactive)
COLO 205
  GI50: > 100 µM (inactive)
TK-10
  GI50: > 100 µM (inactive)
A549
  GI50: > 100 µM (inactive)
U-251
  GI50: > 100 µM (inactive)
OVCAR-5
  GI50: > 100 µM (inactive)
IGROV-1
  GI50: > 100 µM (inactive)
NCI-H23
  GI50: > 100 µM (inactive)
RPMI-8226
  GI50: > 100 µM (inactive)
KM12
  GI50: > 100 µM (inactive)
SNB-75
  GI50: 66.2 µM (inactive)
HCT-15
  GI50: > 100 µM

## CCOC(=O)n1ccc2c(C(=O)OC)c(C(=O)OC)cc(/C(=C/C(=O)OC)C(=O)OC)c21
CCRF-CEM
  GI50: 10.4 µM (inactive)
Malme-3M
  GI50: > 100 µM (inactive)
SN12C
  GI50: > 100 µM (inactive)
HOP-62
  GI50: > 100 µM (inactive)
EKVX
  GI50: > 100 µM (inactive)
RXF 393
  GI50: 66.8 µM (inactive)
SK-MEL-28
  GI50: > 100 µM (inactive)
OVCAR-8
  GI50: > 100 µM (inactive)
SK-MEL-5
  GI50: > 100 µM (inactive)
OVCAR-3
  GI50: > 100 µM (inactive)
786-0
  GI50: > 100 µM (inactive)
SNB-19
  GI50: > 100 µM (inactive)
M14
  GI50: > 100 µM (inactive)
NCI-H522
  GI50: 57.1 µM (inactive)
OVCAR-4
  GI50: > 100 µM (inactive)
HL-60
  GI50: > 100 µM (inactive)
HT-29
  GI50: > 100 µM (inactive)
NCI-H460
  GI50: > 100 µM (inactive)
CAKI-1
  GI50: > 100 µM (inactive)
NCI/ADR-RES
  GI50: > 100 µM (inactive)
MOLT-4
  GI50: 32.1 µM (inactive)
MDA-MB-435
  GI50: > 100 µM (inactive)
BT-549
  GI50: 60.7 µM (inactive)
ACHN
  GI50: > 100 µM (inactive)
HOP-92
  GI50: 34.3 µM (inactive)
PC-3
  GI50: > 100 µM (inactive)
SK-OV-3
  GI50: > 100 µM (inactive)
SF-295
  GI50: > 100 µM (inactive)
SF-268
  GI50: > 100 µM (inactive)
DU-145
  GI50: > 100 µM (inactive)
MCF7
  GI50: > 100 µM (inactive)
UACC-257
  GI50: > 100 µM (inactive)
MDA-N
  GI50: 83.6 µM (inactive)
Hs-578T
  GI50: > 100 µM (inactive)
UACC-62
  GI50: 82.2 µM (inactive)
HCT-116
  GI50: 89.3 µM (inactive)
SR
  GI50: 79.8 µM (inactive)
K562
  GI50: 26.5 µM (inactive)
LOX IMVI
  GI50: > 100 µM (inactive)
SF-539
  GI50: > 100 µM (inactive)
T47D
  GI50: 74.5 µM (inactive)
HCC 2998
  GI50: > 100 µM (inactive)
NCI-H226
  GI50: > 100 µM (inactive)
UO-31
  GI50: 92.5 µM (inactive)
SW-620
  GI50: > 100 µM (inactive)
COLO 205
  GI50: > 100 µM (inactive)
TK-10
  GI50: > 100 µM (inactive)
SK-MEL-2
  GI50: > 100 µM (inactive)
A549
  GI50: > 100 µM (inactive)
U-251
  GI50: > 100 µM (inactive)
OVCAR-5
  GI50: > 100 µM (inactive)
MDA-MB-231
  GI50: > 100 µM (inactive)
IGROV-1
  GI50: > 100 µM (inactive)
NCI-H23
  GI50: > 100 µM (inactive)
RPMI-8226
  GI50: 26.5 µM (inactive)
KM12
  GI50: > 100 µM (inactive)
SNB-75
  GI50: > 100 µM (inactive)
A498
  GI50: > 100 µM (inactive)
HCT-15
  GI50: > 10 µM
